According to ChEMBL document CHEMBL5620409, “Discovery of tetrasubstituted thiophenes as Cisd2 activators: A potential novel therapeutic option in nonalcoholic fatty liver disease” (Eur J Med Chem, 2023):
The source made the active and inactive calls. No cut-off for these calls is given here.

Assays:
[1] = Metabolic stability in mouse liver microsomes assessed as parent compound remaining at 5 uM in presence of NADPH-generating system measured for 30 mins by LC/MS analysis; type: ADME, Microsome; details: read-out: Stability
[2] = molecular target: T1, CDGSH iron-sulfur domain-containing protein 2 (Homo sapiens, UniProt Q8N5K1); experiment: Activation of Cisd2 (unknown origin) transfected in HEK293 cells incubated for 24 hrs by one-glo luciferase assay; type: cell-based
T1 sequence (Q8N5K1 whole entry): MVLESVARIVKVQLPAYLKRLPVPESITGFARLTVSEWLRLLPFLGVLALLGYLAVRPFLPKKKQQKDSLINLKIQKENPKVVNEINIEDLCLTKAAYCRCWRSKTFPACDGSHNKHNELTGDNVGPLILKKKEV

[3] = system: Mus musculus; experiment: Anti-NAFLD activity in heterozygous hepatocyte-specific Cisd2 knockout C57BL/6 mouse assessed as fold increase in Cisd2 expression in liver at 20 mg/kg, po measured for 12 week by Western blot analysis; type: functional; details: time 12 weeks
[4] = system: Mus musculus; experiment: Anti-NAFLD activity in wild type C57BL/6 mouse assessed as effect on triglyceride level in serum at 20 mg/kg, po measured for 12 week; type: functional, organism-based; details: time 12.0 weeks
[5] = system: Mus musculus; experiment: Anti-NAFLD activity in wild type C57BL/6 mouse assessed as fold increase in Cisd2 expression in liver at 20 mg/kg, po measured for 12 week by Western blot analysis; type: functional; details: time 12 weeks
[6] = Toxicity in heterozygous hepatocyte-specific Cisd2 knockout C57BL/6 mouse assessed as effect on GPT level in serum at 20 mg/kg, po administered for 2 weeks; type: organism-based; details: in vivo, 336 h
[7] = Toxicity in heterozygous hepatocyte-specific Cisd2 knockout C57BL/6 mouse assessed as effect on GOT level in serum at 20 mg/kg, po administered for 2 weeks; type: organism-based; details: in vivo, 336 h
[8] = Toxicity in wild type C57BL/6 mouse assessed as effect on CRE level in serum at 20 mg/kg, po administered for 2 weeks; type: organism-based; details: in vivo, 336 h
[9] = Toxicity in wild type C57BL/6 mouse assessed as change in liver histology at 20 mg/kg, po administered for 2 weeks; type: organism-based; details: in vivo, 336 h
[10] = Toxicity in wild type C57BL/6 mouse assessed as effect on GOT level in serum at 20 mg/kg, po administered for 2 weeks; type: organism-based; details: in vivo, 336 h
[11] = Toxicity in heterozygous hepatocyte-specific Cisd2 knockout C57BL/6 mouse assessed as effect on ALT level in serum at 20 mg/kg, po administered for 2 weeks; type: organism-based; details: in vivo, 336 h
[12] = Toxicity in wild type C57BL/6 mouse assessed as effect on body weight at 20 mg/kg, po measured for 2 weeks; type: organism-based; details: in vivo, 336 h
[13] = Toxicity in wild type C57BL/6 mouse assessed as effect on AST level in serum at 20 mg/kg, po administered for 2 weeks; type: organism-based; details: in vivo, 336 h
[14] = Toxicity in wild type C57BL/6 mouse assessed as effect on ALT level in serum at 20 mg/kg, po administered for 2 weeks; type: organism-based; details: in vivo, 336 h
[15] = system: Mus musculus; experiment: Anti-NAFLD activity in heterozygous hepatocyte-specific Cisd2 knockout C57BL/6 mouse assessed as abnormal hepatic lipid accumulation in liver at 20 mg/kg, po measured for 2 weeks; type: functional, organism-based
[16] = Toxicity in wild type C57BL/6 mouse assessed as food intake at 20 mg/kg, po measured for 5 consecutive days; type: organism-based; details: in vivo, 120 h, time 5 day
[17] = Toxicity in heterozygous hepatocyte-specific Cisd2 knockout C57BL/6 mouse assessed as effect on BUN level in serum at 20 mg/kg, po administered for 2 weeks; type: organism-based; details: in vivo, 336 h
[18] = system: Mus musculus; experiment: Anti-NAFLD activity in heterozygous hepatocyte-specific Cisd2 knockout C57BL/6 mouse assessed as reduction in ballooning degeneration of hepatocytes at 20 mg/kg, po measured for 2 weeks by H and E staining based analysis; type: functional, organism-based
[19] = Toxicity in wild type C57BL/6 mouse assessed as effect on GPT level in serum at 20 mg/kg, po administered for 2 weeks; type: organism-based; details: in vivo, 336 h
[20] = system: Mus musculus; experiment: Anti-NAFLD activity in heterozygous hepatocyte-specific Cisd2 knockout C57BL/6 mouse assessed as reduction in accumulation of fat in liver at 20 mg/kg, po measured for 2 weeks by oil red-O staining based analysis; type: functional, organism-based
[21] = system: Mus musculus; experiment: Anti-NAFLD activity in heterozygous hepatocyte-specific Cisd2 knockout C57BL/6 mouse assessed as reduction in hepatic steatosis in liver at 20 mg/kg, po measured for 2 weeks by H and E staining based analysis; type: functional, organism-based
[22] = Toxicity in wild type C57BL/6 mouse assessed as effect on BUN level in serum at 20 mg/kg, po administered for 2 weeks; type: organism-based; details: in vivo, 336 h
[23] = system: Mus musculus; experiment: Anti-NAFLD activity in heterozygous hepatocyte-specific Cisd2 knockout C57BL/6 mouse assessed as effect on triglyceride level in serum at 20 mg/kg, po measured for 12 week; type: functional, organism-based; details: time 12.0 weeks
[24] = Toxicity in heterozygous hepatocyte-specific Cisd2 knockout C57BL/6 mouse assessed as effect on CRE level in serum at 20 mg/kg, po administered for 2 weeks; type: organism-based; details: in vivo, 336 h
[25] = Toxicity in heterozygous hepatocyte-specific Cisd2 knockout C57BL/6 mouse assessed as effect on AST level in serum at 20 mg/kg, po administered for 2 weeks; type: organism-based; details: in vivo, 336 h
[26] = Toxicity in heterozygous hepatocyte-specific Cisd2 knockout C57BL/6 mouse assessed as effect on body weight at 20 mg/kg, po measured for 2 weeks; type: organism-based; details: in vivo, 336 h

COC(=O)c1c(N)sc(C(=O)Nc2ccccc2C)c1C
remaining at 0.5 h, 5 µM [1]: 53.3%
EC50 [2]: 233 nM

Cc1ccc(NC(=O)c2sc(N)c(C(=O)NCC#N)c2C)c(C)c1
EC50 [2]: 1590 nM

COC(=O)c1c(N)sc(C(=O)Nc2ccc(C)cc2)c1C
remaining at 0.5 h, 5 µM [1]: 73.2%
EC50 [2]: 10 nM

COC(=O)c1c(N)sc(C(=O)Nc2cccc(C)c2)c1C
remaining at 0.5 h, 5 µM [1]: 53.8%
EC50 [2]: 35 nM

COC(=O)c1c(N)sc(C(=O)Nc2nccs2)c1C
remaining at 0.5 h, 5 µM [1]: 44.5%
EC50 [2]: 153 nM

COC(=O)c1c(NC(C)=O)sc(C(=O)Nc2ccc(C)cc2C)c1C
EC50 [2]: 4440 nM

COC(=O)c1c(N)sc(C(=O)Nc2ccc(C(F)(F)F)cc2)c1C
EC50 [2]: 252 nM

COC(=O)c1c(N)sc(C(=O)Nc2ccc(O)cc2)c1C
fold change (FC) [3]: 2
Activity [4]: Active
fold change (FC) [5]: 1.3
Activity [6]: Non-Toxic
Activity [7]: Non-Toxic
Activity [8]: Non-Toxic
Activity [9]: Non-Toxic
Activity [10]: Non-Toxic
Activity [11]: Non-Toxic
Activity [12]: Non-Toxic
Activity [13]: Non-Toxic
Activity [14]: Non-Toxic
Activity [15]: Active
remaining at 0.5 h, 5 µM [1]: 91.8%
EC50 [2]: 191 nM
Activity [16]: Non-Toxic
Activity [17]: Non-Toxic
Activity [18]: Active
Activity [19]: Non-Toxic
Activity [20]: Active
Activity [21]: Active
Activity [22]: Non-Toxic
Activity [23]: Active
Activity [24]: Non-Toxic
Activity [25]: Non-Toxic
Activity [26]: Non-Toxic

CNc1sc(C(=O)Nc2ccc(C)cc2C)c(C)c1C(=O)OC
EC50 [2]: > 10000 nM

COC(=O)c1c(N)sc(C(=O)Nc2cc(OC)c(OC)c(OC)c2)c1C
EC50 [2]: 2180 nM

COC(=O)c1c(N)sc(C(=O)Nc2c(C)cc(C)cc2C)c1C
EC50 [2]: 1700 nM

Cc1ccc(NC(=O)c2sc(N)c(C(=O)O)c2C)c(C)c1
EC50 [2]: 296 nM

Cc1ccc(NC(=O)c2sc(N)c(C#N)c2C)c(C)c1
EC50 [2]: 2670 nM

COC(=O)c1cc(C(=O)Nc2ccc(C)cc2C)sc1N
EC50 [2]: 2080 nM

COC(=O)c1c(N)sc(C(=O)Nc2cccc(OC)c2)c1C
remaining at 0.5 h, 5 µM [1]: 59.2%
EC50 [2]: 23 nM

Cc1ccc(NC(=O)c2sc(N)c(C(=O)OC(C)(C)C)c2C)c(C)c1
EC50 [2]: 1340 nM

COC(=O)c1sccc1NC(=O)c1sc(N)c(C(=O)OC)c1C
EC50 [2]: > 10000 nM
